One assay deals with cell proliferation. Particulars: Hanauske-Abel et al. 1994; cited from earlier work.
In assay [1] the target is T1, purified human prolyl 4-hydroxylase (Homo sapiens, UniProt P13674).
T1 construct: made in house; host or cells: Spodoptera frugiperda insect cells (baculovirus, co-expression of α- and β-subunits)
Nature of the assay: Assay of purified human prolyl 4-hydroxylase (14CO2 release from 2-oxoglutarate, cell-free). It counts as biochemical. How it is done: The effect on the enzyme was determined in a cell-free system by measuring the oxidative decarboxylation of its cofactor 2-oxoglutarate via release of radiolabeled carbon dioxide in a standard reaction mixture also containing ascorbate, ferrous sulfate, and unhydroxylated peptide substrate.
The inhibitory action of the substances according to the invention, for example on collagen secretion or cell proliferation, can be tested in direct assays of the enzymes mediating the pivotal protein hydroxylations for these biological processes, such as prolyl 4-hydroxylase and deoxyhypusyl hydroxylase. This entails the enzymatic hydroxylation of the appropriate protein precursor, either by the cellular or the purified enzyme, in the presence or absence of compounds of Formulae (I) or (II), with concomitant determination of co-substrate utilization by these enzymes or subsequent isolation of the hydroxylated amino acid and its unhydroxylated precursor. In this manner, the inhibitory potency of any given compound can be measured in the cell-free system, in cell culture, or in tissue, and is expressed as the inhibitory dose that gives a 50% reduction of the enzyme-mediated reaction (ID50). Enzyme is tested in analogy to the method of A. Abbruzzese, H. M. Hanauske-Abel, et al., Biochem. Biophys. Acta, 1077, 159-166 (1991) and of K. Majamaa, H. M. Hanauske-Abel, et al., Eur. J. Biochem. 138, 239-245 (1984), which are hereby incorporated by reference. Table III lists the ID50 values of some of the compounds according to the invention, using purified human prolyl 4-hydroxylase and cellular human deoxyhypusyl hydroxylase as representative protein hydroxylases.
The inhibiting effect of hydroxypyridones on the collagen-hydroxylating enzyme was studied in a cell-free system.
Assay of purified human prolyl 4-hydroxylase
The native α2 β2 -tetrameric enzyme was purified to homogeneity by poly(L-proline) affinity chromatography and DEAE chromatography from the supernatant of Spodoptera frugiperda insect cells cotransfected with recombinant baculovirus transfer vectors for both the human α- and β-subunits. Enzyme activity was determined by trapping of ^14 CO2 released from 2-oxo[1-^14 C][glutarate] according to the procedure of Majamaa, et al., Eur. J. Biochem., 138:239-245 (1984), which is hereby incorporated by reference. Briefly, all incubations were run for 60 minutes at 37° C. in a final volume of 1.0 ml per test sample, containing 0.1 μg enzyme, 0.1 mg heat-denatured (Pro-Pro-Gly)10 ×9 H2 O as hydroxylatable substrate, 0.1 mM 2-oxo[1-^14 C][glutarate] adjusted to 60,000 dpm by mixing with the unlabeled 2-oxoglutarate as cosubstrate, and cofactors (1.6 mM ascorbate, 0.05 mM ferrous sulfate, 0.08 mM dithiothreitol, 2 mg bovine serum albumin, 5 μL catalase). Assays are performed with only one of the active compounds at any given time.

In assay [2] the test system is deoxyhypusyl hydroxylase activity in human smooth muscle cells. Description: Cellular deoxyhypusyl hydroxylase in human smooth muscle cells. It counts as cell-based. The settings on record: FIG. 3b. As to the method: In FIG. 3a, the effect on the human enzyme was determined by measuring in proliferating cultured B-lymphocytes the covalent incorporation of tritiated spermidine-derived label into cellular protein, after standard hydrolysis, chromatographic separation of amino acids, and expression of the results relative to uninhibited controls. In FIG. 3b, a standard chromatographic elution profile is shown as obtained from cultured human smooth muscle cells ("SMC"), grown out of coronary atherosclerotic lesions and metabolically labeled in the absence and presence of L-mimosine. […]
The cellular conversion of the precursor deoxyhypusine to the hydroxylated hypusine in cells was examined, after preincubation with the inhibitor for 60 minutes, by labeling the human cells with ^3 H-spermidine (5 μCi/ml) in 25 cm^2 flasks (1×10^6 cells/flask) for 24 hours prior to cell lysis, precipitation with 10% TCA containing 1 mM each of putrescine, spermidine, and spermine, and hydrolysis in 6 N HCl at 110° C. for 16 hours. The hydrolysate was analyzed for labeled amino acids on an amino acid analyzer by published methods (Park et al., J. Biol. Chem., 257:7217-7222 (1982), which is hereby incorporated by reference). The retention of purified hypusine and deoxyhypusine was determined from standards.

Assay [3] has as its target T2, prolyl 4-hydroxylase in human coronary smooth muscle cells (SMC) (Homo sapiens, UniProt P13674).
T2 construct: 3H-proline to 3H-hydroxyproline conversion
Nature of the assay: Assay of cellular human prolyl 4-hydroxylase in lesion-derived SMC (3H-proline labeling). It counts as cell-based. Particulars: upon removal of the inhibitor. As to the method: Those SMC, immunocytochemically identified by reactivity to contractile α-actinas shown in FIGS. 4b and 4c were pretreated with inhibitor for 30 minutes prior to routine metabolic labeling with tritiated proline ("^3 H-Pro") for 24 hours, followed by standard hydrolysis and separation of amino acids from both supernatant and cells. The degree of inhibition of scar collagen formation was determined by measuring formation of tritiated hydroxyproline ("^3 H-Hyp").
Human coronary artery smooth muscle cells ("SMC") were isolated from specimens collected immediately after directional rotary atherectomy (Simpson AtheroCath, DVI, Inc., Redwood City, Calif.). […] To verify the SMC phenotype of the cultures, cells were plated onto LabTek 8-chamber slides and stained by indirect immunofluorescence for the SMC marker contractile α-actin, using a mouse monoclonal antibody specific for the contractile smooth muscle α-actin (clone No. IA4; Sigma) which was detected with FITC- or peroxidase-labeled […] (Sigma). […] Results were photodocumented with a Nikon Labophot 2 fluorescence microscope. […]

“Also recorded” adds a separate entry of the source.

T1 sequence (P13674 18-534): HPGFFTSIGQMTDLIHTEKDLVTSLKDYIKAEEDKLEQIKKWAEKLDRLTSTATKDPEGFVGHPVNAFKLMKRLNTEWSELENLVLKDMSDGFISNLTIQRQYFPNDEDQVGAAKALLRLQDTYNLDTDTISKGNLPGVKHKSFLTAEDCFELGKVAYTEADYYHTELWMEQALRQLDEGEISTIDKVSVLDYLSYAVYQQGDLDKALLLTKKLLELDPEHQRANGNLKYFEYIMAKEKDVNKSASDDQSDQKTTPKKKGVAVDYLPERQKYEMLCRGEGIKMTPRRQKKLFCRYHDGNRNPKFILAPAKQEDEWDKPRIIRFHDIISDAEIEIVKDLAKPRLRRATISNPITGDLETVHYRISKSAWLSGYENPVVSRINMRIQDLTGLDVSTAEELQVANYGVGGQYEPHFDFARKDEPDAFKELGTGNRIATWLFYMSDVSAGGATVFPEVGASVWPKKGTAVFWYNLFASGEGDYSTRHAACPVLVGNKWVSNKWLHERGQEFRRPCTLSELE
T1 sequence (P07237 18-508 partner): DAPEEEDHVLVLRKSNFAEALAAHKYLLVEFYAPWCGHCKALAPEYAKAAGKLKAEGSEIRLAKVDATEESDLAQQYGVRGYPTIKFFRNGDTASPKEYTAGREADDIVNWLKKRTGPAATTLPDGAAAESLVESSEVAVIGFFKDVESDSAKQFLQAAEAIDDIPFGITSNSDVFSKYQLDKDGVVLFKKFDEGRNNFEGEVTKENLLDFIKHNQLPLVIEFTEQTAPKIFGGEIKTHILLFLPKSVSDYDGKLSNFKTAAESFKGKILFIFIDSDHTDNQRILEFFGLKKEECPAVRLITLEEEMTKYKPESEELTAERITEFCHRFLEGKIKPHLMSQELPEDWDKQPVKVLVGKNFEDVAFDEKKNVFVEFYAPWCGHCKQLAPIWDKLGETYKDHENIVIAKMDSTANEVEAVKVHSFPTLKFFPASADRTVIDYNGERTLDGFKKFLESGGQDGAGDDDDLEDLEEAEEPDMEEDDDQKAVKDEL
T2 sequence (P13674 18-534): as the sequence (P13674 18-534) above
T2 sequence (P07237 18-508 partner): as the sequence (P07237 18-508 partner) above

In the case of `N[C@@H](Cn1ccc(=O)c(O)c1)C(=O)O` [L-Mimosine], the “inhibition of the multiplication of certain cells” value in the assay on cell proliferation was “reversible inhibitor”. For the same compound, the “inhibition of purified human prolyl 4-hydroxylase” value in assay [1] (cell-free system, FIG. 1) was “directly inhibit”. The Prolyl 4-hydroxylase ID50 (purified) in assay [1] (purified human enzyme, inhibitory dose that gives 50% reduction of the enzyme-mediated reaction, unit assumed) came to 120 µM. Also, the “inhibition of deoxyhypusyl hydroxylase activity” value in assay [2] is “inhibit deoxyhypusyl hydroxylase activity; also recorded: label is shifted to the unhydroxylated precursor of Hps”. The “reversibility of suppression of cellular prolyl hydroxylase activity” value in assay [3] is “rapidly reversible”.
